This is an account of results in PMC13252604, “First Generation Proteolysis Targeting Chimeras (PROTACs) for the Treatment of Progeria” (Advanced Science, 2026).

SMILES strings stand for the structures.

The subject of series [1] is HGADFN167 Lmna^G608G/G608G fibroblasts. In words: Senescence-associated β-galactosidase activity in human progeroid cells. Format: cell-based. The note with it: HGADFN167, 5 µM, 20 days. An excerpt:
FIGURE 6 (A) Representative cropped immunoblots and progerin quantification in human Lmna^G608G/G608G fibroblasts. MW, molecular weight (in kDa) markers. […] (B) PROTAC 2 increases cell proliferation (upper panels) and decreases the number of misshapen nuclei (lower panels). White arrows highlight selected misshapen nuclei. (C) PROTAC 2 decreases senescence‐associated β‐galactosidase (SA‐βgal) activity, interleukin (IL) 6, p16 and p21 senescent markers. Bar graphs show mean±sem of 2 (SA‐βgal and p21) or 3 (IL‐6 and p16) independent experiments performed in triplicate. (D) PROTAC 2 decreases phosphorylated histone 2AX (pH2AX) and increases trimethylated histone 3 (H3K9Me3) levels. (E) PROTAC 2 increases the oxygen consumption rate (OCR), ATP production and the number of healthy mitochondria in human progeroid cells. […] Data were analysed using one‐way ANOVA followed by Dunnett's post–hoc test vs vehicle (panel A) or vs G608G cells (panels B‐E). ^*, p < 0.05; ^**, p < 0.01; ^***, p < 0.001; ^****, p < 0.0001. […]
compound exposure. […] Samples were analysed by electrophoresis in polyacrylamide gels (All Kd SDS-PAGE, BioRad) and the proteins transferred to nitrocellulose membranes (GE Healthcare, Amersham). […]
GAPDH (Cell Signaling, 2118S, 1:5000) and anti-actin (Santa Cruz Biotechnology, sc-376248, 1:500) as antibodies for loading control. […] The bands were quantified by densitometry using the […]

For the next series, the system named is Lmna^G609G/G609G mice. Description: In vivo treatment of progeroid Lmna^G609G/G609G mice. Set-up: species or system mouse. Here is the method:
Weight was monitored during this time and at the end of the period mice were sacrificed and tissue was harvested to determine if PROTAC administration induced a decrease in the levels of progerin in vivo.
UHPLC with an oven temperature of 31.5 °C. The mass spectrometer ion optics were set in the multiple reaction monitoring mode and the transition selected for quantification […]
For in vivo treatment, compound 2 was administrated at a concentration of 25 mg/kg diluted in sterile corn oil (Sigma-Aldrich) intraperitoneally three times per week starting at the age of 6 weeks. The same quantity of corn oil was injected to control […]
LmnaG609G/G609G and Lmna+/+ mice. […]
stress in mice. The weight of each mouse was registered 2 to 3 times per week during the duration of the treatment.
After 7 weeks of treatment, mice were euthanized by CO2 inhalation. Immediately after sacrifice, tissues were harvested, frozen in dry ice, and kept at -80 °C until use. For immunoblot analysis, a portion of the corresponding tissue was homogenized, and the protein concentration was determined. Samples containing equivalent amounts of total protein were then subjected to polyacrylamide gel electrophoresis and analyzed as […]

With `CC1(C)Oc2cc3oc(=O)ccc3cc2C[C@@H]1OC(=O)CCCCCNc1cccc2c1C(=O)N(C1CCC(=O)NC1=O)C2=O` (some centres unmarked) [compound 2], in series [1], the “SA‐βgal senescent marker” value is “significantly reduced”. Also, in the series on Lmna^G609G/G609G mice (25 mg/kg i.p. in corn oil three times per week), the “apparent damage or stress in mice” value was “did not produce any apparent damage or stress in mice”. In the series with Lmna^G609G/G609G mice (Lmna^G609G/G609G mice, 25 mg/kg i.p. three times per week, seven weeks), the body weight result is listed as “trend toward improved body weight”. The “H3K9Me3 levels in vivo” value in the series with Lmna^G609G/G609G mice (liver, Lmna^G609G/G609G mice, 25 mg/kg i.p. three times per week, 7 weeks) was “increased levels of H3K9Me3”. In the series with Lmna^G609G/G609G mice (lung, Lmna^G609G/G609G mice, 25 mg/kg i.p. three times per week, 7 weeks), the “progerin levels in vivo” value is listed as “reduced levels of progerin”.
